Columns and labels:
Lolium multiflorum [1] = assay: Effect on antioxidant enzyme system in Lolium multiflorum (Italian ryegrass) shoots assessed as dehydroascorbate reductase activity per mg protein compound administered at rate of 14 mf/flat measured 48 hr post treatment (reference value: 3.6 nmol/s per mg protein); format: functional
Lolium multiflorum [2] = assay: Increase in glutathione S-transferase activity in Lolium multiflorum (Italian ryegrass) compound administered at rate of 14 mf/flat measured 72 hr post treatment; format: functional
Triticum aestivum [3] = assay: Reduction in glutathione S-transferase activity in Triticum aestivum (wheat) shoots compound administered at rate of 14 mf/flat measured 48 hr post treatment; format: functional; set-up: scale not given: the % may be the effect or the level left
Triticum aestivum [4] = assay: Increase in antioxidant enzyme system in Triticum aestivum (wheat) shoots assessed as increase in ascorbate peroxidase activity compound administered at rate of 14 mf/flat measured 24 hr post treatment; format: functional
Triticum aestivum [5] = assay: Effect on antioxidant enzyme system in Triticum aestivum (wheat) shoots assessed as catalase activity per mg protein compound administered at rate of 14 mf/flat measured 48 hr post treatment (reference value: 0.12 nmol/s per mg protein); format: functional
Triticum aestivum [6] = assay: Increase in antioxidant enzyme system in Triticum aestivum (wheat) shoots assessed as increase in glutathione reductase activity compound administered at rate of 14 mf/flat measured 24 hr post treatment; format: functional
Lolium multiflorum [7] = assay: Effect on photosynthetic activity in Lolium multiflorum (Italian ryegrass) shoots assessed as leaf net photosynthesis rate measured by CO2 production compound administered at rate of 14 mf/flat measured 24 hr post treatment (reference value: 4.55 umol/m2/s); format: functional
Shoot = assay: Drug level in Triticum aestivum (wheat) shoots compound administered at rate of 14 mf/flat measured 144 hr post treatment by HPLC; format: ADME
Triticum aestivum [8] = assay: Effect on antioxidant enzyme system in Triticum aestivum (wheat) shoots assessed as glutathione S-transferase activity per mg protein compound administered at rate of 14 mf/flat measured 48 hr post treatment (reference value: 2.3 nmol/s per mg protein); format: functional
Triticum aestivum [9] = assay: Effect on antioxidant enzyme system in Triticum aestivum (wheat) shoots assessed as dehydroascorbate reductase activity per mg protein compound administered at rate of 14 mf/flat measured 24 hr post treatment (reference value: 4.6 nmol/s per mg protein); format: functional
Lolium multiflorum [10] = assay: Increase in MDA content in Lolium multiflorum (Italian ryegrass) shoots compound administered at rate of 14 mf/flat measured 24 hr post treatment; format: functional
Lolium multiflorum [11] = assay: Effect on MDA content in Lolium multiflorum (Italian ryegrass) shoots compound administered at rate of 14 mf/flat measured 24 hr post treatment (reference value: 0.68 uM/L); format: functional
Lolium multiflorum [12] = assay: Increase in antioxidant enzyme system in Lolium multiflorum (Italian ryegrass) shoots assessed as increase in ascorbate peroxidase activity compound administered at rate of 14 mf/flat measured 72 hr post treatment; format: functional
Triticum aestivum [13] = assay: Effect on photosynthetic activity in Triticum aestivum (wheat) shoots assessed as dark respiration rate measured by CO2 production compound administered at rate of 14 mf/flat measured 48 hr post treatment (reference value: -1.43 umol/m2/s); format: functional
Lolium multiflorum [14] = assay: Increase in antioxidant enzyme system in Lolium multiflorum (Italian ryegrass) shoots assessed as increase in dehydroascorbate reductase activity compound administered at rate of 14 mf/flat measured 48 hr post treatment; format: functional
Triticum aestivum [15] = assay: Effect on photosynthetic activity in Triticum aestivum (wheat) shoots assessed as dark respiration rate measured by CO2 production compound administered at rate of 14 mf/flat measured 72 hr post treatment (reference value: -1.07 umol/m2/s); format: functional

Compound	Activity (Lolium multiflorum [1])	Activity (Lolium multiflorum [2])	Activity (Triticum aestivum [3])	Activity (Triticum aestivum [4])	Activity (Triticum aestivum [5])	Activity (Triticum aestivum [6])	Activity (Lolium multiflorum [7])	Drug uptake (Shoot)	Activity (Triticum aestivum [8])	Activity (Triticum aestivum [9])	Activity (Lolium multiflorum [10])	Activity (Lolium multiflorum [11])	Activity (Lolium multiflorum [12])	Activity (Triticum aestivum [13])	Activity (Lolium multiflorum [14])	Activity (Triticum aestivum [15])
CCNc1nc(Cl)nc(NC(C)C)n1 [ATRAZINE]	3.5 nmol/s/mg protein	24%	26%	40%	0.11 nmol/s	36%	-0.61 micromol/m2/s	0.35 ppm	1.7 nmol/s/mg protein	5.5 nmol/s/mg protein	25%	0.85 µM				
O=[N+]([O-])c1ccc(Oc2ccc(C(F)(F)F)cc2[N+](=O)[O-])cc1 [FLUORODIFEN]	4.3 nmol/s/mg protein	35%		46%	0.12 nmol/s	36%	4.64 micromol/m2/s		2.2 nmol/s/mg protein	5 nmol/s/mg protein		0.64 µM	21%	-0.77 micromol/m2/s	19%	-0.94 micromol/m2/s

Reference: ChEMBL document CHEMBL3045349, “A comparative study on the interference of two herbicides in wheat and italian ryegrass and on their antioxidant activities and detoxification rates” (J Agric Food Chem, 2011)
